Data taken from patent US20150175655A1 (priority 2012, published 2015).

Tests used:
Type in all cases: cell-based
[1] = system: genotype 1b stable HCV replicon in Huh-7-derived cells; assay: Stable subgenomic HCV replicon EC50, genotype 1b (Renilla luciferase); conditions: Hepatitis C virus, stable replicon genotype 1b, 72 h, read-out: EC50 1B RLUC
Experimental: (§1) Antiviral potency (EC50) was determined in both stable subgenomic HCV replicon cell lines and transient-transfected HCV replicon cells. The term half maximal effective concentration (EC50) refers to the concentration of a drug which induces a response halfway between the baseline and maximum after the exposure time specified below.
(§2) Stable subgenomic HCV replicons for genotype 1a, 1 b, 2a, 3a, and 4a were established in Huh-7-derived cells as described by Lohmann et al (Lohmann V, Korner F, Koch J, et al Replication of subgenomic hepatitis C virus RNAs in a hepatoma cell line. Science 1999; 285:119-3). Each stable cell line contains a bicistronic HCV replicon that encodes a humanized Renilla luciferase (hRLuc) reporter gene fused to a selectable neomycin-resistance gene, followed by an EMCV IRES and the NS3-NS5B coding region of HCV. […] Luciferase activity was measured as a marker for intracellular HCV replication levels.
(§3) The genotype 1a stable replicon was derived from the H77 HCV strain and contained adaptive mutations P1496L and S2204I. The genotype 1 b stable replicon was derived from the Cont HCV strain and contained adaptive mutations E1202G, T1280I, and K1846T. […] The genotype 3a stable replicon was derived from the S52 HCV strain and contained adaptive mutations P1121 L, A1198T and S2210I (equivalent to S2204I in genotype 1). The genotype 4a stable replicon was derived from the ED43 HCV strain and contained adaptive mutations Q1691R and S2204I. All replicon cell lines were propagated in Huh-7-derived cells and maintained in Dulbecco's modified Eagle's Medium (DMEM) supplemented with 10% fetal bovine serum (FBS) and 0.5 mg/mL G418.
(§4) To perform EC50 assays, cells from each HCV replicon were dispensed into 384-well plates. Compounds were dissolved in DMSO at a concentration of 10 mM and diluted in DMSO using an automated pipetting instrument. Three-fold serially diluted compounds were directly added to the cells using an automated instrument. […] Seventy-two hours later, cells were lysed and Renilla luciferase activity were quantified as recommended by the manufacturer (Promega-Madison, Wis.). Non-linear regression was performed to calculate EC50 values.

[2] = system: genotype 3a transient HCV replicon (S52 strain) in Huh-7-derived cells; assay: Transient-transfected HCV replicon EC50, genotype 3a wild type; conditions: Hepatitis C virus; transient-transfected replicon genotype 3a wild type, 72 h; read-out: EC50 3A WT
[3] = system: genotype 1b (Con1) wild-type transient HCV replicon in Huh-7-derived cells; assay: Transient-transfected HCV replicon EC50, genotype 1b wild type; conditions: Hepatitis C virus; transient-transfected replicon genotype 1b wild type, 72 h; read-out: EC50 1B WT
[4] = system: genotype 4a stable HCV replicon (ED43 strain) in Huh-7-derived cells; assay: Stable subgenomic HCV replicon EC50, genotype 4a (Renilla luciferase); conditions: Hepatitis C virus, 72 h, read-out: EC50 4A RLUC
Experimental: as §1, §2, §3, §4

Structure (SMILES) | EC50 [1] | EC50 [2] | EC50 [3] | EC50 [4]
CC[C@@H]1[C@@H]2CN(C(=O)[C@H](C(C)(C)C)NC(=O)O[C@]3(C)CCC[C@H]3CCCCCc3nc4ccc(OC)cc4nc3O2)[C@@H]1C(=O)N[C@]1(C(=O)NS(=O)(=O)C2(C)CC2)C[C@H]1CC(F)F [Example 41, (3aR,7S,10S,11S,12R,24aR)-7-tert-butyl-N-[(1R,2S)-2-(2,2-difluoroethyl)-1-{[(1-methylcyclopropyl)sulfonyl]carbamoyl}cyclopropyl]-11-ethyl-16-methoxy-3a-methyl-5,8-dioxo-1,2,3,3a,5,6,7,8,11,12,20,21,22,23,24,24a-hexadecahydro-10H-9,12-methanocyclopenta[18,19][1,10,3,6]dioxadiazacyclononadecino[11,12-b]quinoxaline-10-carboxamide] | 142 nM | 539 nM | 154 nM | –
COc1ccc2nc3c(nc2c1)O[C@H]1CN(C(=O)[C@H](C(C)(C)C)NC(=O)O[C@@H]2C[C@H]2CCCCC3F)[C@H](C(=O)N[C@]2(C(=O)NS(=O)(=O)C3(C)CC3)C[C@H]2C(F)F)[C@@H]1C (stereo partly drawn) [Example 47, (1aR,5S,8S,9S,10R,22aR)-5-tert-butyl-N-[(1R,2R)-2-(difluoromethyl)-1-{[(1-methylcyclopropyl)sulfonyl]carbamoyl}cyclopropyl]-18-fluoro-14-methoxy-9-methyl-3,6-dioxo-1,1a,3,4,5,6,9,10,18,19,20,21,22,22a-tetradecahydro-8H-7,10-methanocyclopropa[18,19][1,10,3,6]dioxadiazacyclononadecino[11,12-b]quinoxaline-8-carboxamide] | 3.6 nM | 17 nM | 2 nM | 4.2 nM
CC[C@@H]1[C@@H]2CN(C(=O)[C@H](C(C)(C)C)NC(=O)O[C@@H]3C[C@H]3CC/C=C/C(F)(F)C3Nc4ccc(C#N)cc4N=C3O2)[C@@H]1C(=O)N[C@]1(C(=O)NS(=O)(=O)C2(C)CC2)C[C@H]1C(F)F (stereo partly drawn) [Example 78, (1aR,5S,8S,9S,10R,19E,22aR)-5-tert-butyl-14-cyano-N-[(1R,2R)-2-(difluoromethyl)-1-{[(1-methylcyclopropyl)sulfonyl]carbamoyl}cyclopropyl]-9-ethyl-18,18-difluoro-3,6-dioxo-1,1a,3,4,5,6,9,10,17,17a,18,21,22,22a-tetradecahydro-8H-7,10-methanocyclopropa[18,19][1,10,3,6]dioxadiazacyclononadecino[11,12-b]quinoxaline-8-carboxamide] | 394 nM | 194 nM | 156 nM | 225 nM
C[C@@H]1[C@@H]2CN(C(=O)[C@H](C(C)(C)C)NC(=O)O[C@@H]3C[C@H]3CCCCC(F)(F)c3nc4ccc(Cl)cc4nc3O2)[C@@H]1C(=O)N[C@]1(C(=O)NS(=O)(=O)C2(C)CC2)C[C@H]1C(F)F [Example 88, (1aR,5S,8S,9S,10R,22aR)-5-tert-butyl-14-chloro-N-[(1R,2R)-2-(difluoromethyl)-1-{[(1-methylcyclopropyl)sulfonyl]carbamoyl}cyclopropyl]-18,18-difluoro-9-methyl-3,6-dioxo-1,1a,3,4,5,6,9,10,18,19,20,21,22,22a-tetradecahydro-8H-7,10-methanocyclopropa[18,19][1,10,3,6]dioxadiazacyclononadecino[11,12-b]quinoxaline-8-carboxamide] | 4.6 nM | 35 nM | 5.5 nM | 4.1 nM
